Source: patent publication US20090191193A1, “Aryl Vinyl Sulfides, Sulfones, Sulfoxides and Sulfonamides, Derivatives Thereof and Therapeutic Uses Thereof” (TEMPLE UNIVERSITY-OF THE COMMONWEALTH SYSTEM OF HIGHER …, priority 2006, published 2009)

How the values were obtained:
[1] = tested on: K562 (chronic myelogenous leukaemia); assay: Effect on tumor cell lines, viable cell count by trypan blue exclusion (Latham et al.): K562; format: cell-based; conditions: K562 chronic myelogenous leukaemia cells, viable cell count 96 hours after treatment
Method: (§1) The effect of the compounds of the invention on tumor cells was determined by the assay described by Latham et al., Oncogene 12:827-837 (1996). Tumor cells DU145 (prostate cancer), K562 (chronic myelogenous leukaemia), BT20 (breast carcinoma), H157 (non small cell lung carcinoma), or DLD1 (colon carcinoma) were plated in 6-well dishes at a cell density of 1.0×10^5 cells per 35-mm^2 well. […] The total number of viable cells was determined 96 hours later by trypsinizing the wells and counting the number of viable cells, as determined by trypan blue exclusion, using a hemacytometer. Normal HFL cells were treated with the same compounds under the same conditions of concentration and time.

DU145 (prostate cancer) = assay: Effect on tumor cell lines, viable cell count by trypan blue exclusion (Latham et al.): DU145; format: cell-based; conditions: DU145 prostate cancer cells, viable cell count 96 hours after treatment
Method: as §1

With `N#C/C(=C\c1ccc(O)c([N+](=O)[O-])c1)S(=O)(=O)Cc1ccccc1` [Example 139] the melting point was 159 to 162 °C, the IC50 ([1]; Homo sapiens, K562, 96 h) was 50 to 100 µM and the IC50 (DU145 (prostate cancer); Homo sapiens, DU-145, 96 h) was over 100 µM.

With `Cc1ccc(C)c(/C=C(\C#N)S(=O)(=O)Cc2ccc(F)cc2)c1` [Example 90] the melting point was 122 to 130 °C, the IC50 ([1]; Homo sapiens, K562, 96 h) was 50 to 100 µM and the IC50 (DU145 (prostate cancer); Homo sapiens, DU-145, 96 h) was over 100 µM.

Compound `Cc1cc(/C=C(\C#N)S(=O)(=O)Cc2ccc(Cl)cc2)ccc1F` [Example 42] has a melting point of 140 to 145 °C, an IC50 ([1]; Homo sapiens, K562, 96 h) of 50 to 100 µM and an IC50 (DU145 (prostate cancer); Homo sapiens, DU-145, 96 h) of 50 to 100 µM.

For `N#C/C(=C\c1ccc(F)cc1)S(=O)(=O)Cc1ccc(Cl)cc1` [Example 47], the melting point was 145 to 150 °C, the IC50 ([1]; Homo sapiens, K562, 96 h) was 50 to 100 µM and the IC50 (DU145 (prostate cancer); Homo sapiens, DU-145, 96 h) was 50 to 100 µM.

Work on `N#C/C(=C\c1ccccc1Oc1ccccc1)S(=O)(=O)Nc1ccccc1Oc1ccccc1` [Example 210] yielded a melting point of 138 to 140 °C, an IC50 ([1]; Homo sapiens, K562, 96 h) of 1 to 10 µM and an IC50 (DU145 (prostate cancer); Homo sapiens, DU-145, 96 h) of 25 to 50 µM.

With `COc1ccccc1/C=C(\C#N)S(=O)(=O)Nc1ccc(Br)cc1` [Example 225] the melting point was 187 to 189 °C, the IC50 ([1]; Homo sapiens, K562, 96 h) was 50 to 100 µM and the IC50 (DU145 (prostate cancer); Homo sapiens, DU-145, 96 h) was 50 to 100 µM.

Compound `COc1ccc(CS(=O)(=O)/C(C#N)=C/c2ccc(OC)cc2OC)cc1` [Example 147] has a melting point of 156 to 160 °C, an IC50 ([1]; Homo sapiens, K562, 96 h) of over 100 µM and an IC50 (DU145 (prostate cancer); Homo sapiens, DU-145, 96 h) of over 100 µM.

In the case of `N#C/C(=C\c1c[nH]c2ccc(Cl)cc12)S(=O)(=O)Cc1ccc(Cl)cc1Cl` [Example 75], the melting point is reported as 282 to 292 °C, the IC50 [1] is reported as 50 to 100 µM and the IC50 (DU145 (prostate cancer)) is reported as 50 to 100 µM.

`N#C/C(=C\c1ccc(O)c([N+](=O)[O-])c1)S(=O)(=O)Cc1ccc(Cl)cc1Cl` [Example 109] gave a melting point of 169 to 171 °C, an IC50 ([1]; Homo sapiens, K562, 96 h) of over 100 µM and an IC50 (DU145 (prostate cancer); Homo sapiens, DU-145, 96 h) of over 100 µM.

`COc1cc(OC)c(/C=C(\[N+](=O)[O-])S(=O)(=O)Cc2ccc(F)cc2)c(OC)c1` [Example 189] gave an IC50 ([1]; Homo sapiens, K562, 96 h) of 5 µM and an IC50 (DU145 (prostate cancer); Homo sapiens, DU-145, 96 h) of 2.5 µM.

Work on `COc1ccc(NS(=O)(=O)/C(C#N)=C/c2ccc(SC)cc2)cc1` [Example 293] yielded an IC50 [1] of over 100 µM and an IC50 (DU145 (prostate cancer)) of over 100 µM.

Compound `CCOC(=O)c1c(C)[nH]c(/C=C(\C#N)S(=O)(=O)Cc2ccc(F)cc2)c1C` [Example 37, (E)-2-[(4-fluorophenyl)methanesulfonyl]-3-(4-ethoxycarbonyl-3,5-dimethylpyrrol-2-yl)acrylonitrile] has an IC50 ([1]; Homo sapiens, K562, 96 h) of 50 to 100 µM and an IC50 (DU145 (prostate cancer); Homo sapiens, DU-145, 96 h) of 50 to 100 µM.

With `N#C/C(=C\c1ccc(-c2ccccc2)cc1)S(=O)(=O)Nc1ccc(F)cc1` [Example 239] the IC50 [1] was 10 to 25 µM and the IC50 (DU145 (prostate cancer)) was 50 to 100 µM.

For `CSc1ccc(/C=C(\C#N)S(=O)(=O)Cc2ccc(F)cc2)cc1` [Example 87], the IC50 [1] was 25 to 50 µM and the IC50 (DU145 (prostate cancer)) was 25 to 50 µM.

Work on `N#C/C(=C\c1ccc(-c2ccccc2)cc1)S(=O)(=O)Nc1ccc(Br)cc1` [Example 220] yielded an IC50 [1] of 10 to 25 µM and an IC50 (DU145 (prostate cancer)) of 50 to 100 µM.

Compound `CSc1ccc(/C=C(\C#N)S(=O)(=O)Nc2ccc(C)cc2C)cc1` [Example 276] has an IC50 [1] of over 100 µM and an IC50 (DU145 (prostate cancer)) of over 100 µM.

In the case of `COc1ccc(NS(=O)(=O)/C(C#N)=C/c2ccc(-c3ccccc3)cc2)cc1` [Example 286], the IC50 [1] is reported as 50 to 100 µM and the IC50 (DU145 (prostate cancer)) is reported as 50 to 100 µM.

`Cc1ccsc1/C=C(\C#N)S(=O)(=O)Cc1ccc(Cl)cc1` [Example 120] gave an IC50 [1] of 25 to 50 µM and an IC50 (DU145 (prostate cancer)) of 50 to 100 µM.

Compound `Cc1ccsc1/C=C(\C#N)S(=O)(=O)Cc1ccc(Cl)cc1Cl` [Example 102] has an IC50 [1] of 50 to 100 µM and an IC50 (DU145 (prostate cancer)) of over 100 µM.

`N#C/C(=C\c1ccc(-c2ccccc2)cc1)S(=O)(=O)Cc1ccc(Cl)cc1` [Example 67] showed an IC50 [1] of over 100 µM and an IC50 (DU145 (prostate cancer)) of over 100 µM.

`CN(C)c1ccc(/C=C(\C#N)S(=O)(=O)Cc2ccc(Cl)cc2)cc1` [Example 58] showed an IC50 ([1]; Homo sapiens, K562, 96 h) of 25 to 50 µM and an IC50 (DU145 (prostate cancer); Homo sapiens, DU-145, 96 h) of 50 to 100 µM.

Compound `Cc1ccsc1/C=C(\C#N)S(=O)(=O)Cc1ccccc1` [Example 127] has an IC50 [1] of over 100 µM and an IC50 (DU145 (prostate cancer)) of over 100 µM.

`COc1ccc(CS(=O)(=O)/C(=C/c2c(OC)cc(OC)cc2OC)[N+](=O)[O-])cc1` [Example 188] showed an IC50 ([1]; Homo sapiens, K562, 96 h) of 2 µM and an IC50 (DU145 (prostate cancer); Homo sapiens, DU-145, 96 h) of under 1 µM.

`CSc1ccc(/C=C(\C#N)S(=O)(=O)Cc2ccc(Cl)cc2)cc1` [Example 43] gave an IC50 [1] of 50 to 100 µM and an IC50 (DU145 (prostate cancer)) of over 100 µM.

`Cc1ccc(NS(=O)(=O)/C(C#N)=C/c2ccc(-c3ccccc3)cc2)c(C)c1` [Example 260] gave an IC50 [1] of 25 to 50 µM and an IC50 (DU145 (prostate cancer)) of 50 to 100 µM.
